Values joined by “and” are separate entries in the source; they are usually repeats but may differ in a detail not shown here. Equal entries are not always repeated. Marks after values point to notes of the source that are not given here.
How the values were obtained:
[1] = target: T1, paf receptors on eosinophils (Homo sapiens, UniProt P25105); assay: [^3H]paf binding to intact human eosinophils
T1 construct: endogenous in cells; host or cells: intact human blood eosinophils (about 96% pure)
Method: Eosinophils were also prepared under sterile conditions. Blood (400 ml) was mixed with 10% (v/v) dextran. The supernatant was carefully deposited on a metrizoate/ficoll suspension (d=1.148) after sedimentation of red blood cells and centrifuged (400×g: 40 min). Erythrocyte lysis was performed by adding 3 v. of distilled water for 40 sec, followed by 1 v. NaCl (3.5%, w/v). Cells were suspended in 500 μl pH 7.4 Tyrode's buffer, centrifuged (1900 rpm×10 min) and resuspended (5×10^6 cells/ml) in Tyrode's (0.25% BSA) without Ca^2+. The eosinophils fraction at 1×10^6 cells/ml contained 96±5% eosinophils, 3±3% neutrophils, 1±2% mononuclear cells and no free platelets (mean±s.d., n=3).
(§2) Binding studies were performed using, for example, intact neutrophils (PMN) or intact human blood eosinophils. PMN (2.5×10^6) or eosinophils (2.5×10^5) were suspended in 500 μl Tyrode's buffer supplemented with 1.3 mM CaCl2, 1 mM MgCl2 and 0.25% (v/v) fatty acid-free bovine serum albumin (BSA, w/v) were incubated with [^3H]paf (0.325-6.5 nM) either for 30 min at 20° C. or for 20 hrs at 4° C. Non-specific binding was assessed with the unlabeled ligands either paf (500 nM) or the receptor antagonist WEB 2086 (1 μM or 400 nM).
Eosinophils were added to Tyrode's (0.25% BSA, 1.3 mM CaCl2, 1 mM MgCl2) containing [3H]paf (0.325-6.5 nM) in the absence or presence of unlabeled paf, lyso paf, enantio-paf or lyso-phosphatidylcholine (LPC) (5, 10, 50, 500 nM) and/or the specific paf receptor antagonist WEB 2086 (400 nM). After the binding procedure, cells were separated from their suspending medium by filtration in a millipore vacuum system with GF/C filters. Filters were washed with 10 ml Tyrode's buffer at 4° C. and radioactivity was assessed by scintillation. Cell-bound radioactivity on the filters after subtraction of blanks (filter-bound radioactivity in the absence of cells) was expressed in fmol [^3H]paf bound per 2.5×10^6 PMN or 2.5×10^5 eosinophils.

[2] = test system: endothelial cell prostacyclin release; assay: endothelial cell prostacyclin release (6-keto-PGF1-alpha); format: cell-based
[3] = test system: PMN; assay: cytosolic free calcium (fura-2) in PMN; format: cell-based, human
Method: (§1) The concentration of cytosolic free calcium [Ca^2+]i was measured using the [Ca^2+]i indicator fura-2-acetoxymethyl ester (fura-2). […] The spectrofluorophotometer was programmed to shuttle between the two excitation wavelengths of 340 and 380 nm every 5 sec while keeping the emission wavelength of 505 nm. […] Background values were subtracted from all data. The intracellular Ca^2+ was calculated with the formula [[…] is KD of the fura-2 multiplied with the quotient of the fluorescence at 380 nm from the minimal and the maximal [Ca^2+]i fluorescence.

[4] = test system: eosinophils; assay: cytosolic free calcium (fura-2) in eosinophils; format: cell-based, human; settings: EGTA 2 mM
Method: as §1

[5] = test system: lyso paf receptors on neutrophils (PMN); assay: [^3H]lyso paf binding to neutrophils (PMN); set-up: species or system human; settings: for effect of unlabeled ligand on [^3H]lyso paf binding: excess unlabeled paf or lyso paf 500 nM, WEB 2086 1 μM, 20° C.
Method: (§3) Neutrophils (PMN) were prepared from venous blood (40 ml) from normal donors, anticoagulated with citric acid dextrose (7:1, v/v) was sedimented for 30 to 45 min in gelatin 0.3% final (Plasmagel®). Twenty ml of supernatant were layered on 10 ml Ficoll Hypaque (d=1.077) and centrifuged (400×g, 20 min, 20° C.). The cell pellet containing PMN (95%) was resuspended in 500 μl Tyrode's buffer (pH=7.4). Erythrocyte lysis was performed by adding 3 volumes of distilled water for 40 sec. followed by 1 volume NaCl (3.5%, w/v). PMN were then washed twice in Tyrode's buffer (centrifugation at 370×g at 20° C. for 10 min). Cell concentration was adjusted to 5×10^7 per ml.
The binding of [^3H]lyso paf (0.325-0.5 nM) was measured after 30 min incubation at 20° C. in the absence or presence of an excess of unlabeled lyso paf (500 nM), paf (500 nM) or WEB 2086 (1 μM). The effect of low dose paf (5 nM) on the binding of [^3H]lyso paf was also investigated. […] After the binding procedure, cells were separated from their suspending medium by filtration in a millipore vacuum system with GF/C filters. Filters were washed with 10 ml Tyrode's buffer at 4° C. and radioactivity was assessed by scintillation. Cell-bound radioactivity on the filters after subtraction of blanks (filter-bound radioactivity in the absence of cells) was expressed in fmol [^3H]paf bound per 2.5×10^6 PMN or 2.5×10^5 eosinophils.

[6] = target: T2, paf receptors on neutrophils (PMN) (Homo sapiens, UniProt P25105); assay: [^3H]paf binding to intact human neutrophils (PMN)
T2 construct: Neutrophils (PMN) were prepared from venous blood (40 ml) from normal donors; endogenous in cells; host or cells: intact neutrophils (PMN) from venous blood of normal donors
T2 sequence (P25105 whole entry): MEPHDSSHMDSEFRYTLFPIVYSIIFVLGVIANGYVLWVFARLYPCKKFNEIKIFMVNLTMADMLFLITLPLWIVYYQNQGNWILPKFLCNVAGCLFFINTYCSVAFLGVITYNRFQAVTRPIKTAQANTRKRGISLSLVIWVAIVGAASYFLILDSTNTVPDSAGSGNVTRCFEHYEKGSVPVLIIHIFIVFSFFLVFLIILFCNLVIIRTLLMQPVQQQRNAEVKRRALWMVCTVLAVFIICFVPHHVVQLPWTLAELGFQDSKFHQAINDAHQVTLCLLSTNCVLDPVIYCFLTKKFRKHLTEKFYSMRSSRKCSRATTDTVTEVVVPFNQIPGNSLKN
Method: as §3, §2
In a second set of experiments, [^3H]paf binding was performed by adding 3.25 nM [^3H]paf to PMN, simultaneously with low dose (5 to 50 nM) of paf, lyso paf, the enantiomer of paf or 2-lyso phosphatidylcholine (LPC) for 30 min at 20° C. [^3H]paf binding was also measured in the presence of the phorbol ester 4-phorbol-12-myristate-13-acetate (PMA, 1 to 16 nM) either added simultaneously with [^3H]paf or preincubated 15 min at 37° C. previously. […] After the binding procedure, cells were separated from their suspending medium by filtration in a millipore vacuum system with GF/C filters. Filters were washed with 10 ml Tyrode's buffer at 4° C. and radioactivity was assessed by scintillation. Cell-bound radioactivity on the filters after subtraction of blanks (filter-bound radioactivity in the absence of cells) was expressed in fmol [^3H]paf bound per 2.5×10^6 PMN or 2.5×10^5 eosinophils.

[7] = test system: endothelial cell; assay: [^3H]paf binding to endothelial cells
[8] = test system: acetylhydrolase; assay: acetylhydrolase activity, kinetic constants; format: biochemical, human; settings: excess AAGPC
Method: Acetylhydrolase activity was measured in lysates of resting platelets or platelets stimulated with thrombin (0.5 IU/ml, 1 min, 37° C.), in supernatants of thrombin-activated platelets with or without acid-treated (inactivation of acetylhydrolase) plasma and in native plasma. Samples were incubated for 10 min at 37° C. in the presence of 0.1 μCi [^3H]acetyl paf and concentrations of unlabeled paf varying from 5 to 35 μM. The microenvironment modulates the acetylhydrolase indicating the origin of plasma acetylhydrolase from activated platelets.

[9] = test system: U 937 cells; assay: cAMP levels of U 937 cells; format: cell-based; settings: cholesterol 60 μg/ml, 24 hrs
Method: U 937 cells were grown in stationary suspension culture in RPMI 1640 containing 10% fetal calf serum (FCS) and 2 mM L-glutamine at 37° C. in a humidified atmosphere of 5% CO2 and 95% air. The cells were diluted with fresh medium (1/10, v/v) twice a week. After three days in culture, U 937 cells were centrifuged (1000×G for 10 min) and incubated for 24 hrs in RPMI 1640 medium containing 10% CPSR 1 (delipidated FCS) and 2 mM L-glutamine. Subsequently the cells were incubated in the delipidated FCS medium containing cholesterol (10-60 μg/ml), as compared with solvent alone (ethanol, 0.5% v/v, final concentration) for (2, 4 or 24 hrs).
Cyclic AMP in supernatants from cholesterol-treated and control cells, were measured by the Rianen [^125I]cAMP-RIA Kit. Briefly, cholesterol (60 μg/ml, 24 hrs) or cholesterol vehicle (ethanol) were added after 24 hrs cell incubation in delipidated FCS medium. Cells were subsequently washed three times and resuspended (5×10^6, final concentration) in Hanks Hepes (HH)-buffer, pH 7.4 with ascorbinic acid (10 mM) and cAMP-phosphodiesterase inhibitor IBMX (1 mM). Cell suspension (100 μl) was added to 400 μl of the cAMP buffer for 30 min at 20° C. […] Values are from one experiment (representative of three) expressed as pmol cAMP per 10^6 cells. Total proteins were measured by standard procedure.

[10] = test system: human platelets; assay: acetylhydrolase release from activated platelets; format: cell-based; settings: Thrombin 0.5 IU/ml; for acetylhydrolase release: Paf 500 nM
Method: Results are expressed as mean±S.D. or S.E. and statistics were performed using the “Mann Whitney” test (n=3, n=5 or n=6 as indicated).

[11] = Add. 5 nM, [^3H]paf […], 20° C., 30 min, WEB 2086 1 μM

T1 sequence (P25105 whole entry): as above

Compound: Cc1nnc2n1-c1sc(CCC(=O)N3CCOCC3)cc1C(c1ccccc1Cl)=NC2 [WEB 2086, 3-(4-(2-chlorophenyl)-9-methyl-6H-thieno(3,2-f) (1,2,4)triazolo-(4,3-a)-(1,4)diazepine-2-yl)-1-(4-morpholinyl)-1-propanone]
- specific [^3H]paf binding, plateau values ([1]; 20° C., 30 min, WEB 2086 400 nM, 3 experiments): 25.8 ± 8.1 fmol
- specific [^3H]paf binding ([1]; 20° C., 30 min, WEB 2086 400 nM, 3 other experiments, no inhibitory effect): 4.3 ± 3.3 fmol
- specific [^3H]paf binding, maximal plateau values ([1]; 20 hrs at 4° C., assessed with unlabeled paf 500 nM or WEB 2086 400 nM): 14.8±5.1 fmol per 2.5×10^5 cells
- specific [^3H]paf binding ([1]; addition 0 nM, WEB 2086 400 nM, 20° C., 30 min): 15.1 ± 8.0^1) fmol per 2.5×10^5 cells
- 6-keto-PGF1-alpha ([2]; 100 nM WEB 2086, increased from 127±3): 145±11 pg per ml
- effect on paf-induced Ca^2+ flux ([3]; WEB 2086 1 μM, 3 min preincubation): shifted to the right the paf dose-response curve
- effect on paf-mediated [Ca^2+]i rise [4]: competitively inhibited
- effect of unlabeled ligand on [^3H]lyso paf binding [5]: inefficient
- binding of […] [^3H]lyso paf ([5]; paf 5 nM with WEB 2086 1 μM): 212.0±6.4 fmol/2.5×10^6 PMN
- effect of excess unlabeled ligand on [^3H]paf binding ([6]; paf 500 nM, WEB 2086 1 μM): inhibited
- increased phospholipid binding (lysine aspirin) antagonized [7]: antagonized

Compound: CCCCCCCCCCCCCCCCOCC(COP(=O)([O-])OCC[N+](C)(C)C)OC(=O)CCCCCCCCCCCCCCC (stereo not shown) [AAGPC, 1-O-hexadecyl-2-palmitoyl-GPC]
- inhibition of acetylhydrolase activity [8]: not inhibited

Compound: 2-lyso phosphocholine [LPC]
- interference with [3H]paf binding [1]: did not interfere
- [^3H]paf binding [6, 11]: 322 ± 22 fmol [^3H]paf bound per 2.5×10^6 PMN

Compound: COc1ccc(SCC(=S)N2CCc3c(sc4c3C(c3ccccc3Cl)=NCc3nnc(C)n3-4)C2)cc1OC [BN 50 739]
- inhibited endothelial cell bound [^3H]paf ([7]; 20 μM): 5.8 fmol

Compound: CC(C)CCC[C@@H](C)[C@H]1CC[C@H]2[C@@H]3CC=C4C[C@@H](O)CC[C@]4(C)[C@H]3CC[C@]12C [Cholesterol, cholesterol]
- release of cAMP levels [9]: increased

Compound: CC1C(=O)OC2C(O)C34C5CC(C(C)(C)C)C36C(OC(=O)C6O)OC4(C(=O)O5)C12O (stereo not shown) [BU 52021]
- endothelial cell prostacyclin release ([2]; 10 μM, increased from 50±2): 126±10 pg per ml

Compound: Thrombin
- released of the total acetylhydrolase ([10]; paf 500 nM, mean±S.E., n=3): 17.2±3.1%
- acetylhydrolase release ([10]; stimulation 0 sec): 2.2 ± 0.9 percentage of the total content of acetylhydrolase
- acetylhydrolase release ([10]; stimulation 15 sec): 8.5 ± 0.7 percentage of the total content of acetylhydrolase
- acetylhydrolase release ([10]; stimulation 30 sec): 13.1 ± 3.9 percentage of the total content of acetylhydrolase
- acetylhydrolase release ([10]; stimulation 60 sec): 12.8 ± 5.1 percentage of the total content of acetylhydrolase
- acetylhydrolase release ([10]; stimulation 120 sec): 10.9 ± 3.1 percentage of the total content of acetylhydrolase
- acetylhydrolase release ([10]; stimulation 180 sec): 17.9 ± 2.6 percentage of the total content of acetylhydrolase
- acetylhydrolase release ([10]; stimulation 300 sec): 17.2 ± 3.1 percentage of the total content of acetylhydrolase

Compound: CCCCCCCCCCCCCCCCCCOC[C@H](COP(=O)([O-])OCC[N+](C)(C)C)OC(C)=O [[^3H]paf] [1-O-[^3H]-octadecyl-2-acetyl-sn-glycero-3-phosphocholine]
- binding sites per eosinophil [1]: 85×10^3 sites per eosinophil
- Bmax ([1]; 20 hrs at 4° C.): 35.4 fmol per 2.5×10^5 cells
- Kd ([1]; 20 hrs at 4° C., read-out: binding affinity (Kd) on eosinophils): 5.5 nM
- Kd ([6]; 4° C.): 0.44 nM
- total binding of [^3H]paf ([6]; 4° C.): 157.0±27.4 fmol per 2.5×10^6 cells
- total binding of [^3H]paf ([6]; 20° C.): 310.5±13.0 fmol per 2.5×10^6 cells

Compound: CC(=O)Oc1ccccc1C(=O)O.NCCCCC(N)C(=O)O [Lysine aspirin]
- endothelial cell bound [^3H]paf, % of the total binding [7]: 177% and 198%

Compound: CCCCCCCCCCCCCCCCCCOC[C@@H](O)COP(=O)([O-])OCC[N+](C)(C)C [lyso paf, 1-octadecyl-sn-glycero-3-phosphocholine]
- interference with [3H]paf binding [1]: did not interfere
- specific [^3H]paf binding ([1]; addition 5 nM, WEB 2086 400 nM, 20° C., 30 min): 1.5 ± 1.7 fmol per 2.5×10^5 cells
- specific [^3H]paf binding ([1]; addition 10 nM, WEB 2086 400 nM, 20° C., 30 min): 1.2 ± 1.6 fmol per 2.5×10^5 cells
- specific [^3H]paf binding ([1]; addition 50 nM, WEB 2086 400 nM, 20° C., 30 min): 4.4 ± 3.7 fmol per 2.5×10^5 cells
- cytoplasmic Ca^2+ flux in response to agonist ([3]; 1 to 500 nM, CaCl2 1.3 mM or EGTA 2 mM): induced neither [Ca^2+]i entry nor mobilization
- effect of unlabeled ligand on [^3H]lyso paf binding [5]: inhibited
- [^3H]paf binding [6, 11]: 354 ± 20 fmol [^3H]paf bound per 2.5×10^6 PMN
- [^3H]paf binding ([6]; Add. 10 nM, [^3H]paf […], 20° C., 30 min, WEB 2086 1 μM): 243 ± 16 fmol [^3H]paf bound per 2.5×10^6 PMN
- [^3H]paf binding ([6]; Add. 50 nM, [^3H]paf […], 20° C., 30 min, WEB 2086 1 μM): 240 ± 18 fmol [^3H]paf bound per 2.5×10^6 PMN

Compound: CCCCCCCCCCCCCC(=O)O[C@@H]1[C@@H](C)[C@@]2(O)[C@@H](C=C(CO)C[C@]3(O)C(=O)C(C)=C[C@@H]23)[C@@H]2C(C)(C)[C@]12OC(C)=O [PMA, phorbol-12-myristate-13-acetate]
- [^3H]paf binding ([6]; PMA 1 nM, preincubation 0 min at 37° C.): 385 fmol [^3H]paf bound per 2.5×10^6 PMN
- [^3H]paf binding ([6]; PMA 1 nM, preincubation 15 min at 37° C.): 413 fmol [^3H]paf bound per 2.5×10^6 PMN
- [^3H]paf binding ([6]; PMA 16 nM, preincubation 0 min at 37° C.): 219 fmol [^3H]paf bound per 2.5×10^6 PMN
- [^3H]paf binding ([6]; PMA 16 nM, preincubation 15 min at 37° C.): 171 fmol [^3H]paf bound per 2.5×10^6 PMN

Compound: CCCCCCCCCCCCCCCCCCNC(=O)OCC(COP(=O)([O-])OCC[n+]1ccsc1)OC (racemic) [CV 3988, rac-3-(N-n-octadecylcarbamoyloxy)-2-methoxypropyl 2-tiazolioethyl phosphate]
- increased phospholipid binding (lysine aspirin) antagonized [7]: antagonized

Reference: patent publication US20020127287A1, “Treatment of lyso paf-mediated disorders with lyso paf or paf antagonists and procedure for determining their efficacy” (priority 1990, published 2002)
